According to ChEMBL document CHEMBL3045059, “Efficacy of ketoenols on insecticide resistant field populations of two-spotted spider mite Tetranychus urticae and sweet potato whitefly Bemisia tabaci from Greece” (2012):
Values after ≈ are worked out from the molar mass of the structure shown.

Assays:
Format in all cases: functional
[1] = tested on: Tetranychus urticae; assay: Acaricidal activity against larvae of Tetranychus urticae (two-spotted spider mite) greenhouse population TU7 in bean leaves assessed as mortality applied at 1 bar pressure measured after 6 days
[2] = tested on: Tetranychus urticae; assay: Resistance ratio, ratio of LC50 for larvae of Tetranychus urticae (two-spotted spider mite) field population TU6 to LC50 for larvae of Tetranychus urticae laboratory strain SAMB measured after 6 days
[3] = tested on: Tetranychus urticae; assay: Acaricidal activity against larvae of Tetranychus urticae (two-spotted spider mite) laboratory strain SAMB in bean leaves assessed as mortality applied at 1 bar pressure measured after 6 days
[4] = tested on: Tetranychus urticae; assay: Resistance ratio, ratio of LC50 for larvae of Tetranychus urticae (two-spotted spider mite) field population TU2 to LC50 for larvae of Tetranychus urticae laboratory strain SAMB measured after 6 days
[5] = tested on: Tetranychus urticae; assay: Acaricidal activity against larvae of Tetranychus urticae (two-spotted spider mite) greenhouse population TU9 in bean leaves assessed as mortality applied at 1 bar pressure measured after 6 days
[6] = tested on: Tetranychus urticae; assay: Resistance ratio, ratio of LC50 for larvae of Tetranychus urticae (two-spotted spider mite) mixed strain ALL-14 selected with spirodiclofen for 14 generations to LC50 for larvae of Tetranychus urticae (two-spotted spider mite) laboratory strain SAMB measured after 6 days
[7] = tested on: Tetranychus urticae; assay: Acaricidal activity against larvae of Tetranychus urticae (two-spotted spider mite) greenhouse population TU3 in bean leaves assessed as mortality applied at 1 bar pressure measured after 6 days
[8] = tested on: Tetranychus urticae; assay: Resistance ratio, ratio of LC50 for larvae of Tetranychus urticae (two-spotted spider mite) laboratory strain GSS to LC50 for larvae of Tetranychus urticae laboratory strain SAMB measured after 6 days
[9] = tested on: Tetranychus urticae; assay: Acaricidal activity against larvae of Tetranychus urticae (two-spotted spider mite) laboratory strain GSS in bean leaves assessed as mortality applied at 1 bar pressure measured after 6 days
[10] = tested on: Tetranychus urticae; assay: Resistance ratio, ratio of LC50 for larvae of Tetranychus urticae (two-spotted spider mite) greenhouse population TU5 to LC50 for larvae of Tetranychus urticae laboratory strain SAMB measured after 6 days
[11] = tested on: Tetranychus urticae; assay: Acaricidal activity against larvae of Tetranychus urticae (two-spotted spider mite) mixed strain ALL-14 selected with spirodiclofen for 14 generations in bean leaves assessed as mortality by applying constant selection pressure under laboratory conditions
[12] = tested on: Tetranychus urticae; assay: Resistance ratio, ratio of LC50 for larvae of Tetranychus urticae (two-spotted spider mite) field population TU12 to LC50 for larvae of Tetranychus urticae laboratory strain SAMB measured after 6 days
[13] = tested on: Tetranychus urticae; assay: Resistance ratio, ratio of LC50 for larvae of Tetranychus urticae (two-spotted spider mite) greenhouse population TU11 to LC50 for larvae of Tetranychus urticae laboratory strain SAMB measured after 6 days
[14] = tested on: Tetranychus urticae; assay: Acaricidal activity against larvae of Tetranychus urticae (two-spotted spider mite) field population TU2 in bean leaves assessed as mortality applied at 1 bar pressure measured after 6 days
[15] = tested on: Tetranychus urticae; assay: Resistance ratio, ratio of LC50 for larvae of Tetranychus urticae (two-spotted spider mite) greenhouse population TU9 to LC50 for larvae of Tetranychus urticae laboratory strain SAMB measured after 6 days
[16] = tested on: Tetranychus urticae; assay: Acaricidal activity against larvae of Tetranychus urticae (two-spotted spider mite) field population TU4 in bean leaves assessed as mortality applied at 1 bar pressure measured after 6 days
[17] = tested on: Tetranychus urticae; assay: Acaricidal activity against larvae of Tetranychus urticae (two-spotted spider mite) greenhouse population TU5 in bean leaves assessed as mortality applied at 1 bar pressure measured after 6 days
[18] = tested on: Tetranychus urticae; assay: Acaricidal activity against larvae of Tetranychus urticae (two-spotted spider mite) greenhouse population TU11 in bean leaves assessed as mortality applied at 1 bar pressure measured after 6 days
[19] = tested on: Tetranychus urticae; assay: Acaricidal activity against larvae of Tetranychus urticae (two-spotted spider mite) field population TU6 in bean leaves assessed as mortality applied at 1 bar pressure measured after 6 days
[20] = tested on: Tetranychus urticae; assay: Resistance ratio, ratio of LC50 for larvae of Tetranychus urticae (two-spotted spider mite) field population TU4 to LC50 for larvae of Tetranychus urticae laboratory strain SAMB measured after 6 days
[21] = tested on: Tetranychus urticae; assay: Resistance ratio, ratio of LC50 for larvae of Tetranychus urticae (two-spotted spider mite) greenhouse population TU1 to LC50 for larvae of Tetranychus urticae laboratory strain SAMB measured after 6 days
[22] = tested on: Tetranychus urticae; assay: Acaricidal activity against larvae of Tetranychus urticae (two-spotted spider mite) field population TU12 in bean leaves assessed as mortality applied at 1 bar pressure measured after 6 days
[23] = tested on: Tetranychus urticae; assay: Resistance ratio, ratio of LC50 for larvae of Tetranychus urticae (two-spotted spider mite) greenhouse population TU7 to LC50 for larvae of Tetranychus urticae laboratory strain SAMB measured after 6 days
[24] = tested on: Tetranychus urticae; assay: Acaricidal activity against larvae of Tetranychus urticae (two-spotted spider mite) greenhouse population TU1 in bean leaves assessed as mortality applied at 1 bar pressure measured after 6 days
[25] = tested on: Tetranychus urticae; assay: Resistance ratio, ratio of LC50 for larvae of Tetranychus urticae (two-spotted spider mite) greenhouse population TU3 to LC50 for larvae of Tetranychus urticae laboratory strain SAMB measured after 6 days

SMILES: CCC(C)(C)C(=O)OC1=C(c2ccc(Cl)cc2Cl)C(=O)OC12CCCCC2 [SPIRODICLOFEN]
- LC95 [1]: 87.7 µg/mL (≈ 213 µM)
- LC50 ([1]; Tetranychus urticae, TU7, 144 h): 27 µg/mL (≈ 65.6 µM)
- RatioLC50 [2]: 0.2
- LC95 [3]: 7.8 µg/mL (≈ 19 µM)
- LC50 ([3]; Tetranychus urticae, SAMB, 144 h): 2.2 µg/mL (≈ 5.35 µM)
- RatioLC50 [4]: 1.4
- LC95 [5]: 43.4 µg/mL (≈ 106 µM)
- LC50 ([5]; Tetranychus urticae, TU9, 144 h): 5 µg/mL (≈ 12.2 µM)
- RatioLC50 [6]: 4.3
- LC95 [7]: 5 µg/mL (≈ 12.2 µM)
- LC50 ([7]; Tetranychus urticae, TU3, 144 h): 1.6 µg/mL (≈ 3.89 µM)
- RatioLC50 [8]: 0.6
- LC95 [9]: 4 µg/mL (≈ 9.72 µM)
- LC50 ([9]; Tetranychus urticae, GSS, 144 h): 1.4 µg/mL (≈ 3.4 µM)
- RatioLC50 [10]: 1.1
- LC95 [11]: 32.1 µg/mL (≈ 78 µM)
- LC50 ([11]; Tetranychus urticae, mixed strain ALL-14): 9.5 µg/mL (≈ 23.1 µM)
- RatioLC50 [12]: 2.5
- RatioLC50 [13]: 3.9
- LC95 [14]: 18.6 µg/mL (≈ 45.2 µM)
- LC50 ([14]; Tetranychus urticae, TU2, 144 h): 3.2 µg/mL (≈ 7.78 µM)
- RatioLC50 [15]: 2.2
- LC95 [16]: 8 µg/mL (≈ 19.4 µM)
- LC50 ([16]; Tetranychus urticae, TU4, 144 h): 2.5 µg/mL (≈ 6.08 µM)
- LC95 [17]: 4.6 µg/mL (≈ 11.2 µM)
- LC50 ([17]; Tetranychus urticae, TU5, 144 h): 2.5 µg/mL (≈ 6.08 µM)
- LC95 [18]: 46.1 µg/mL (≈ 112 µM)
- LC50 ([18]; Tetranychus urticae, TU11, 144 h): 8.7 µg/mL (≈ 21.2 µM)
- LC95 [19]: 2.3 µg/mL (≈ 5.59 µM)
- LC50 ([19]; Tetranychus urticae, TU6, 144 h): 0.5 µg/mL (≈ 1.22 µM)
- RatioLC50 [20]: 1.1
- RatioLC50 [21]: 1.2
- LC95 [22]: 23.8 µg/mL (≈ 57.9 µM)
- LC50 ([22]; Tetranychus urticae, TU12, 144 h): 5.5 µg/mL (≈ 13.4 µM)
- RatioLC50 [23]: 12
- LC95 [24]: 17.9 µg/mL (≈ 43.5 µM)
- LC50 ([24]; Tetranychus urticae, TU1, 144 h): 2.7 µg/mL (≈ 6.56 µM)
- RatioLC50 [25]: 0.7
